The results in this text go back to patent publication US10632054B2, “Method for hair frizz reduction” (The Procter & Gamble Company, priority 2015, dated 2020).

A short description of assay [1]: Expert rating of hair switches for frizz, clean feel and greasy feel. To be noted: 1% in leave-on composition. The method, then:
Additional leave-on treatment compositions are prepared (Tables 1 and 2) according to the procedure described above, which are used to treat hair switches using the procedure described above (amount of 0.10 g of composition per g of hair). The switch is kept at high humidity (above 85%) for 2 hours. Then, ten experts are asked to rate each hair switch in terms of frizz, clean feel, and greasy feel, based on a 5 point scale, 5 being the highest and 1 being the lowest rating. Acceptable values are:
For frizz, less than 2 (lower number corresponds to less frizz);
For no greasy feel less than 3, (lower number corresponds to less greasy feel), and
For clean feel greater than 3 (higher number corresponds to cleaner feel).

Assay [2] can be described thus: Soaking treatment, moisture uptake by DVS. The note with it: pH 4.2, 40 deg C., at 90% RH. As for the experimental part: The Moisture Control Material is added into a 50:50 ethanol:water solvent at a concentration of 2% w/w and mixed until completely dissolved. The solution pH is adjusted with sodium hydroxide (50% w/w) to a final pH of 4.2. The soaking solution is kept at 40 deg C. for 2 hrs. until a uniform composition is obtained.
One hair switch of natural virgin brown hair is placed in 200 ml of this solution for 2 hours in an oven set at 40° C. After the 2-hour period, the hair is removed, air dried and then tested for moisture uptake using DVS. For the control experiment, a natural brown virgin hair switch of the same weight is placed in a 50:50 ethanol:water solvent and treated under identical conditions.
The % water reduction is calculated as follows: […]
Hair soaked in active solution of pH 4.2 for different interval of time from 10 min to 2 hrs at 40 deg C. Hair Switches were air dried and prepared for % water reduction measurement using DVS vs. control (no active).

Assay [3] in a line: Leave-on treatment, % water reduction by DVS in damaged hair. The note with it: 10% propylene glycol.
Protocol: An amount of 25-30 mg of hair with length of approximately 1 cm is weighed and hold for equilibration at 0% RH for 16 hours. After the 16-hour period, the RH is increased to 10% and maintained at this level for 6 hours. Then, the RH is increased by 10% after every 6 hours interval until it reaches 90% RH. The % water reduction is calculated as follows:
A=Amount of water absorbed by the hair treated with composition containing the Moisture Control Material

`O=C(O)c1ccc(O)cc1O` [2,4-Dihydroxybenzoic acid]: the “Hair switch rating result in words (frizz, clean feel, greasy feel)” value (from here on “Hair switch rating result in words”) in assay [1] was “provide frizz protection with clean feel and without greasy feel negative”.
As for `CCCCCCCCC(CO)CCCCCC` (stereo not shown) [2-Hexyl-1-decanol], in assay [1], the “Hair switch rating result in words” value was “provide frizz protection with clean feel and without greasy feel negative”.
As for `O=C(OCCO)c1ccccc1O` [2-Hydroxyethyl salicylate], the “Hair switch rating result in words” value in assay [1] was “provide frizz protection with clean feel and without greasy feel negative”.
For the compound `O=S(=O)(O)c1ccc(O)cc1` [4-Hydroxybenzenesulphonic acid], the “Hair switch rating result in words” value in assay [1] was “provide frizz protection with clean feel and without greasy feel negative”.
Regarding `O=C(O)c1cc(Cl)ccc1O` [5-Chlorosalicylic acid], the “% water reduction vs. control” value in assay [2] (10 min soaking) stood at 9.6%; in assay [2] (20 mins soaking) it was 14.8%; in assay [2] (30 mins soaking), 19%; in assay [2] (1 hr soaking), 26%; in assay [2] (2 hr soaking), 30%. Further, the “Hair switch rating result in words” value in assay [1] is “provide frizz protection with clean feel and without greasy feel negative”. Besides, in assay [3], the “increase in % water reduction as measured by DVS versus without propylene glycol” value is on record as around 4 times.
Turning to `CC(C)CCCCCCCCCCCCCCCOC(=O)CCCCCCCCCCCCCCC(C)C` [Isostearyl isostearate], the “Hair switch rating result in words” value in assay [1] is “provide frizz protection with clean feel and without greasy feel negative”.
With `O=C(O)c1ccccc1O` [Salicylic acid], in assay [1], the “Hair switch rating result in words” value was “provide frizz protection with clean feel and without greasy feel negative”.
